Measured values: US8658661B2, “Oxadiazole inhibitors of leukotriene production” (Boehringer Ingelheim International GmbH, priority 2010, dated 2014)

Columns and labels:
[1] = biological target: T1, recombinant human FLAP protein (Homo sapiens, UniProt P20292); test: FLAP binding assay (SPA, displacement of [125I]L-691,831); details: membranes of sf9 cells expressing recombinant human FLAP; [125I]L-691,831 probe; read-out: FLAP binding IC50
T1 construct: made in house; host or cells: Sf9 insect cells (100,000×g membrane pellet used)
T1 sequence (P20292 1-161): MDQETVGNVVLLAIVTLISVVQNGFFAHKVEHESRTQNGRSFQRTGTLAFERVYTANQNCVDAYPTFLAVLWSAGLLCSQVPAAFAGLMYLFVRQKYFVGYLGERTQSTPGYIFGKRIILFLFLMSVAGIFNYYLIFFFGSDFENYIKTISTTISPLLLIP
Method in brief: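 Membranes from sf9 cells expressing human FLAP in pH 7.5 Tris buffer (MgCl2, EDTA, PMSF). Non-specific binding defined with 10 μM cold L-691,831.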

[2] = tested on: synthesis of LTB4 in human whole blood; test: Human whole blood assay (inhibition of LTB4 synthesis, calcimycin stimulated); assay type: cell-based; details: heparinized human whole blood, calcimycin 20 μM, plasma LTB4
Method in brief: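 Whole-blood cellular format, heparinized human donors: 15 min compound pretreatment, then 30 min calcimycin stimulation (20 μM final), both at 37° C. Low-speed centrifugation yields plasma, in which LTB4 is read by homogeneous time-resolved fluorescence immunoassay.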

IC50 [1] [nM]	IC50 [2] [nM]	SMILES
11	200	C[C@](c1ccc(-c2cnc(N)nc2)cc1)(c1noc(-c2cnn(C3COC3)c2)n1)C1CC1 [Example 55, 5-{4-[(1S)-1-cyclopropyl-1-{5-[1-(oxetan-3-yl)-1H-pyrazol-4-yl]-1,2,4-oxadiazol-3-yl}ethyl]phenyl}pyrimidin-2-amine]
11	190	Cn1cc(-c2nc(C(c3ccc(-c4cnc(N)nc4)cc3)C(C)(C)C)no2)cn1 (stereo not shown) [Example 58, 5-(4-{2,2-dimethyl-1-[5-(1-methyl-1H-pyrazol-4-yl)-1,2,4-oxadiazol-3-yl]propyl}phenyl)pyrimidin-2-amine]
1.1	76	CN(C)C(=O)Cn1cc(-c2nc(C(C)(c3ccc(-c4cnc(N)nc4)cc3)C3CC3)no2)cn1 (stereo not shown) [Example 59, 2-[4-(3-{1-[4-(2-aminopyrimidin-5-yl)phenyl]-1-cyclopropylethyl}-1,2,4-oxadiazol-5-yl)-1H-pyrazol-1-yl]-N,N-dimethylacetamide]
4	140	CNC(=O)Cn1cc(-c2nc(C(C)(c3ccc(-c4cnc(N)nc4)cc3)C3CC3)no2)cn1 (stereo not shown) [Example 60, 2-[4-(3-{1-[4-(2-aminopyrimidin-5-yl)phenyl]-1-cyclopropylethyl}-1,2,4-oxadiazol-5-yl)-1H-pyrazol-1-yl]-N-methylacetamide]
1.3	15	Cn1cc(-c2nc([C@@](C)(c3ccc(-c4cnc(N)nc4)cc3)C3CC3)no2)cn1 [Example 61, 5-(4-{(1R)-1-cyclopropyl-1-[5-(1-methyl-1H-pyrazol-4-yl)-1,2,4-oxadiazol-3-yl]ethyl}phenyl)pyrimidin-2-amine]
18	350	Cn1cc(-c2nc([C@](C)(c3ccc(-c4cnc(N)nc4)cc3)C3CC3)no2)cn1 [Example 62, 5-(4-{(1S)-1-cyclopropyl-1-[5-(1-methyl-1H-pyrazol-4-yl)-1,2,4-oxadiazol-3-yl]ethyl}phenyl)pyrimidin-2-amine]
1.1	14	COCCn1cc(-c2nc([C@@](C)(c3ccc(-c4cnc(N)nc4)cc3)C(C)C)no2)cn1 [Example 63, 5-{4-[(2R)-2-{5-[1-(2-methoxyethyl)-1H-pyrazol-4-yl]-1,2,4-oxadiazol-3-yl}-3-methylbutan-2-yl]phenyl}pyrimidin-2-amine]
16	410	COCCn1cc(-c2nc([C@](C)(c3ccc(-c4cnc(N)nc4)cc3)C(C)C)no2)cn1 [Example 64, 5-{4-[(2S)-2-{5-[1-(2-methoxyethyl)-1H-pyrazol-4-yl]-1,2,4-oxadiazol-3-yl}-3-methylbutan-2-yl]phenyl}pyrimidin-2-amine]
75	1500	Cn1cc(-c2nc([C@@H](c3ccc(-c4cnc(N)nc4)cc3)C(C)(C)C)no2)cn1 [Example 65, 5-(4-{(1R)-2,2-dimethyl-1-[5-(1-methyl-1H-pyrazol-4-yl)-1,2,4-oxadiazol-3-yl]propyl}phenyl)pyrimidin-2-amine]
11	330	Cn1cc(-c2nc([C@H](c3ccc(-c4cnc(N)nc4)cc3)C(C)(C)C)no2)cn1 [Example 66, 5-(4-{(1S)-2,2-dimethyl-1-[5-(1-methyl-1H-pyrazol-4-yl)-1,2,4-oxadiazol-3-yl]propyl}phenyl)pyrimidin-2-amine]
6.2	190	CC(C)C(c1ccc(-c2cnc(N)nc2)cc1)c1noc(-c2cnn(C)c2)n1 (stereo not shown) [Example 67, 5-(4-{2-methyl-1-[5-(1-methyl-1H-pyrazol-4-yl)-1,2,4-oxadiazol-3-yl]propyl}phenyl)pyrimidin-2-amine]
6.7	93	Cn1cc(-c2nc(C(C)(C)c3ccc(-c4cnc(N)nc4)cc3)no2)cn1 [Example 68, 5-(4-{2-[5-(1-methyl-1H-pyrazol-4-yl)-1,2,4-oxadiazol-3-yl]propan-2-yl}phenyl)pyrimidin-2-amine]
7.7	120	CC(C)(c1ccc(-c2cnc(N)nc2)cc1)c1noc(-c2cn[nH]c2)n1 [Example 69, 5-(4-{2-[5-(1H-pyrazol-4-yl)-1,2,4-oxadiazol-3-yl]propan-2-yl}phenyl)pyrimidin-2-amine]
7.1	590	CC(C)(O)CNc1ccc(-c2nc(C(C)(C)c3ccc(-c4cnc(N)nc4)cc3)no2)cn1 [Example 70, 1-{[5-(3-{2-[4-(2-aminopyrimidin-5-yl)phenyl]propan-2-yl}-1,2,4-oxadiazol-5-yl)pyridin-2-yl]amino}-2-methylpropan-2-ol]
17	900	CC(C)(c1ccc(-c2cnc(N)nc2)cc1)c1noc(-c2ccc(NCCS(C)(=O)=O)nc2)n1 [Example 71, 5-(4-{2-[5-(6-{[2-(methylsulfonyl)ethyl]amino}pyridin-3-yl)-1,2,4-oxadiazol-3-yl]propan-2-yl}phenyl)pyrimidin-2-amine]
12	440	CC(C)(CO)Nc1ccc(-c2nc(C(C)(C)c3ccc(-c4cnc(N)nc4)cc3)no2)cn1 [Example 72, 2-{[5-(3-{2-[4-(2-aminopyrimidin-5-yl)phenyl]propan-2-yl}-1,2,4-oxadiazol-5-yl)pyridin-2-yl]amino}-2-methylpropan-1-ol]
28	990	CC(C)(O)CNc1cnc(-c2nc(C(C)(C)c3ccc(-c4cnc(N)nc4)cc3)no2)cn1 [Example 73, 1-{[5-(3-{2-[4-(2-aminopyrimidin-5-yl)phenyl]propan-2-yl}-1,2,4-oxadiazol-5-yl)pyrazin-2-yl]amino}-2-methylpropan-2-ol]
17	640	CC(C)(CO)Nc1cnc(-c2nc(C(C)(C)c3ccc(-c4cnc(N)nc4)cc3)no2)cn1 [Example 74, 2-{[5-(3-{2-[4-(2-aminopyrimidin-5-yl)phenyl]propan-2-yl}-1,2,4-oxadiazol-5-yl)pyrazin-2-yl]amino}-2-methylpropan-1-ol]
23	260	CC(C)(O)Cn1cc(-c2nc(C(C)(C)c3ccc(-c4cnc(N)nc4)cc3)no2)cn1 [Example 75, 1-[4-(3-{2-[4-(2-aminopyrimidin-5-yl)phenyl]propan-2-yl}-1,2,4-oxadiazol-5-yl)-1H-pyrazol-1-yl]-2-methylpropan-2-ol]
35	270	COCCn1cc(-c2nc(C(C)(C)c3ccc(-c4cnc(N)nc4)cc3)no2)cn1 [Example 76, 5-[4-(2-{5-[1-(2-methoxyethyl)-1H-pyrazol-4-yl]-1,2,4-oxadiazol-3-yl}propan-2-yl)phenyl]pyrimidin-2-amine]
1.7	36	CC(C)[C@](C)(c1ccc(-c2cnc(N)nc2)cc1)c1noc(-c2cn[nH]c2)n1 [Example 77, 5-(4-{(2R)-3-methyl-2-[5-(1H-pyrazol-4-yl)-1,2,4-oxadiazol-3-yl]butan-2-yl}phenyl)pyrimidin-2-amine]
1.3	240	CC(C)[C@@](C)(c1ccc(-c2cnc(N)nc2)cc1)c1noc(-c2cn[nH]c2)n1 [Example 78, 5-(4-{(2S)-3-methyl-2-[5-(1H-pyrazol-4-yl)-1,2,4-oxadiazol-3-yl]butan-2-yl}phenyl)pyrimidin-2-amine]
150	2200	CNC(=O)Cn1cc(-c2nc(C(C)(C)c3ccc(-c4cnc(N)nc4)cc3)no2)cn1 [Example 79, 2-[4-(3-{2-[4-(2-aminopyrimidin-5-yl)phenyl]propan-2-yl}-1,2,4-oxadiazol-5-yl)-1H-pyrazol-1-yl]-N-methylacetamide]
